Literature values as cited in patent US9999656B2, “Treatment of short bowel syndrome patients with colon-in-continuity” (Shire-NPS Pharmaceuticals, Inc., priority 2004, dated 2018).

What was measured:
SBS jejunostomy patients = conditions: cited from earlier work
[1] = GLP-2; approximately; cited from earlier work

## glucagon-like peptide-2 [native GLP-2]
SBS jejunostomy patients; native GLP-2 400 μg twice daily for 35 days, p=0.040
  effect on wet weight absorption: 420 ± 480 g/day
SBS jejunostomy patients; open-label study, pharmacologic doses, SBS jejunostomy patients (Jeppesen et al.)
  intestinal wet weight absorption (in words): significant improvement in intestinal wet weight absorption
[1]
  half-life: approximately seven
